≈ marks a conversion by molar mass, not a printed value.
Columns and labels:
[1] = test system: HSV type 1 (HSV-1) strain VR-3; test: anti-HSV activity: inhibition of cytopathic effect (CPE), HSV-1; assay type: cell-based; conditions: Human alphaherpesvirus 1; HSV-1 strain VR-3, 100-320 TCID50; human embryonic lung cells; 37° C., 2 to 3 days; read-out: MIC HSV-1 (minimum concentration at which the CPE is inhibited at least by 50%)
Description: (§1) A. Human embryonic lung cells are subcultivated in Eagle's MEM supplemented with 10% semi-fetal calf serum.
(§2) B. The cells thus subcultivated are used as a parent culture. A cell suspension obtained from the parent culture by dividing it at 1:2 split is seeded into 96 microwells in an amount of 150 μl/well and incubated in a CO2 -incubator at 37° C. for 4 to 5 days.
(§3) C. The culture field is discarded, and 100- to 320-50% tissue culture infective doses (100-320 TCID50) of HSV type 1 (HSV-1) strain VR-3 or HSV type 2 (HSV-2) strain MS is inoculated. After incubation at 37° C. for 1 hour, the virus fluid is discarded, 150 μl of Eagle's MEM supplemented with 2.5% semi-fetal calf serum and containing an appropriate amount of each test compound is added, and cultivation is carried out at 37° C. Each of the test compounds is usually diluted in the range of from 100 to 1 μg/ml by serial 0.5 log10 decrements.
(§4) D. After cultivation for 2 to 3 days, the degree of the cytopathic effect (CPE) caused by the viral infection in each of the wells is observed microscopically. At the time when the control cultures, in which the test compound is absent, have shown complete CPE by the viral infection, the degree of CPE in each well is rated from 0 to 4.
(§5) E. The minimum concentration at which the CPE is inhibited at least by 50% (indicated by the CPE score not exceeding 2) is defined as the minimum inhibitory concentration (MIC) of the test compound.

[2] = test system: HSV type 2 (HSV-2) strain MS; test: anti-HSV activity: inhibition of cytopathic effect (CPE), HSV-2; assay type: cell-based; conditions: Human alphaherpesvirus 2, 100-320 TCID50, human embryonic lung cells, 37° C., 2 to 3 days, read-out: MIC HSV-2 (minimum concentration at which the CPE is inhibited at least by 50%)
Description: as §1, §2, §3, §4, §5

CMV strain AD 169 = test: anti-CMV activity: inhibition of plaque formation; assay type: cell-based, cytomegalovirus (CMV); conditions: Human betaherpesvirus 5; CMV strain AD 169, about 50 plaque forming units; human embryonic lung cells; 37° C., 4 to 6 days; read-out: MIC CMV (minimum concentration at which the plaque formation is inhibited at least by 50%)
Description: as §1
B. The cells thus subcultivated are used as a parent culture. A cell suspension obtained from the parent culture by dividing it at 1:2 split is seeded into 24 semi-microwells in an amount of 150 μl/well and incubated in a CO2 -incubator at 37° C. for 4 to 5 days.
C. The culture fluid is discarded, and about 50 plaque forming units of CMV strain AD 169 is inoculated. After incubation at 37° C. for 1 hour, 400 μl of Eagle's MEM supplemented with 2.5% semi-fetal calf serum and containing an appropriate amount of each test compound is added, and cultivation is carried out at 37° C. Each of the test compounds is usually diluted in the range of from 100 to 1 μg/ml by serial 0.5 log10 decrements.
D. After cultivation for 4 to 6 days, infected cells are stained with a 0.5% Crystal Violet solution, and the number of plaques formed is counted under the microscope.
E. The minimum concentration at which the plaque formation is inhibited at least by 50%, based on the number of plaques formed in the control cultures in which the test compound is absent, is defined as the minimum inhibitory concentration (MIC) of the test compound.

Compound | MIC [1] [µg/mL] | MIC [2] [µg/mL] | MIC (CMV strain AD 169) [µg/mL]
C=C1[C@H](n2ccc(N)nc2=O)O[C@H](CO)[C@H]1O [NH2 H H H, 2'-methylidene-2'-deoxycytidine] | 1 (≈ 4.18 µM) | 1 (≈ 4.18 µM) | 0.1 (≈ 0.418 µM)
C=C1[C@H](n2cc(Br)c(=O)[nH]c2=O)O[C@H](CO)[C@H]1O [OH Br H H, 2'-methylidene-2'-deoxy-5-bromouridine] | 3.2 (≈ 10 µM) | 3.2 (≈ 10 µM) | –
CC=C1[C@H](n2cc(C)c(=O)[nH]c2=O)O[C@H](CO)[C@H]1O [OH CH3 CH3 H, 2'-ethylidenethymidine] | 10 (≈ 37.3 µM) | 32 (≈ 119 µM) | –
C=C1[C@H](n2cc(C)c(=O)[nH]c2=O)O[C@H](CO)[C@H]1O [OH CH3 H H, 2'-methylidenethymidine] | 1 (≈ 3.93 µM) | 1 (≈ 3.93 µM) | 5.6 (≈ 22 µM)
C=C1[C@H](n2cc(Cl)c(=O)[nH]c2=O)O[C@H](CO)[C@H]1O [OH Cl H H, 2'-methylidene-2'-deoxy-5-chlorouridine] | 10 (≈ 36.4 µM) | 10 (≈ 36.4 µM) | –
C=C1[C@H](n2cc(I)c(=O)[nH]c2=O)O[C@H](CO)[C@H]1O [OH I H H, 2'-methylidene-2'-deoxy-5-iodouridine] | 1 (≈ 2.73 µM) | 1 (≈ 2.73 µM) | –

Source: patent publication US5047520A, “2'-alkylidenepyrimidine nucleoside derivatives, process for production thereof, and uses thereof” (Yamasa Shoyu Kabushiki Kaisha, priority 1987, dated 1991)
